Where a name gives a salt, the structure may show the parent alone. Read-outs that look alike come from different tables or passages of the source.
Columns and labels:
[1] = test system: expanded OPCs; assay: cells; details: for viability at 0.1 µM / viability at 1 µM / viability at 10 µM: Rattus norvegicus, 72 h
Procedure, shortened: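 Toxicity screen: compounds added at 0.1, 1 and 10 µM to PDGF-AA-expanded OPCs in 96-well plates, 3-day incubation at 37 °C, 10% CO2, then alamarBlue 1:10 for 4 h with fluorescence readout. Results set screening doses of 10/2, 2/0.4 or 0.4/0.08 µM.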

[2] = test system: acutely dissociated and purified rat OPCs; assay: Acute OL differentiation assay (MBP expression/cell, immunofluorescent image quantification); format: cell-based; details: sheet "All OLga data"; for activation at 2 µM / activation at 10 µM / activation at 0.08 µM / activation at 0.4 µM: Rattus norvegicus; for activation at 0.08 µM: test compound at 0.08 uM, read-out: 0.08 uM (% Quet)
Procedure, shortened: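 This acute differentiation assay used purified rat OPCs from postnatal day 6–7 pups, seeded into PDL/laminin-coated 96-well plates in differentiation medium lacking PDGF and FGF. Compounds were applied in quadruplicate after a 1–2 h preincubation at 37 °C, 10 % CO2, with 0.1 % DMSO negative and 40 ng/ml T3 positive controls in eight wells. After fixation on DIV4, anti-MBP immunofluorescence images yielded MBP expression/cell.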

[3] = alamarBlue viability of expanded OPCs, compound at 0.1 µM, relative to DMSO control
[4] = alamarBlue viability of expanded OPCs, compound at 1 µM, relative to DMSO control
[5] = alamarBlue viability of expanded OPCs, compound at 10 µM, relative to DMSO control
[6] = test compound at 2 uM, MBP expression relative to quetiapine, NCC library screen, read-out: 2 uM (% Quet)
[7] = test compound at 10 uM, MBP expression relative to quetiapine, NCC library screen, read-out: 10 uM (% Quet)
[8] = read-out: 0.1 µM (% DMSO), alamarBlue viability, NCC library compound at 0.1 µM, sheet "All Tox data"
[9] = read-out: 1 µM (% DMSO), alamarBlue viability, NCC library compound at 1 µM, sheet "All Tox data"
[10] = read-out: 10 µM (% DMSO), alamarBlue viability, NCC library compound at 10 µM, sheet "All Tox data"
[11] = test compound at 2 uM, NCC library screen, relative to quetiapine, read-out: 2 uM (% Quet)
[12] = test compound at 10 uM, NCC library screen, relative to quetiapine, read-out: 10 uM (% Quet)
[13] = NCC library screen, relative to quetiapine
[14] = test compound at 0.4 uM, NCC library screen, relative to quetiapine, read-out: 0.4 uM (% Quet)
[15] = read-out: 0.1 µM (% DMSO), alamarBlue viability of expanded OPCs, compound at 0.1 µM, sheet All Tox data
[16] = read-out: 1 µM (% DMSO), alamarBlue viability of expanded OPCs, compound at 1 µM, sheet All Tox data
[17] = read-out: 10 µM (% DMSO), alamarBlue viability of expanded OPCs, compound at 10 µM, sheet All Tox data
[18] = 2 uM test compound, relative to quetiapine, read-out: OL differentiation, 2 uM (% Quet)
[19] = 10 uM test compound, relative to quetiapine, read-out: OL differentiation, 10 uM (% Quet)
[20] = 0.4 uM test compound, relative to quetiapine, read-out: OL differentiation, 0.4 uM (% Quet)

Compound: CCC1(c2ccc(N)cc2)CCC(=O)NC1=O (stereo not shown) [Aminoglutethimide]
- 0.1 µM (% DMSO) [1, 3]: 94.4 % DMSO
- 1 µM (% DMSO) [1, 4]: 89.6 % DMSO
- 10 µM (% DMSO) [1, 5]: 84.0 % DMSO
- activation at 2 µM [2, 6]: -11%
- activation at 10 µM [2, 7]: -7.7%

Compound: NCC(=O)CCC(=O)O [Aminolevulinic Acid]
- viability at 0.1 µM [1, 8]: 96%
- viability at 1 µM [1, 9]: 86.7%
- viability at 10 µM [1, 10]: 73.4%
- activation at 2 µM [2, 11]: 5.1%
- activation at 10 µM [2, 12]: -16.1%

Compound: CCCCc1oc2ccccc2c1C(=O)c1cc(I)c(OCCN(CC)CC)c(I)c1 [Amiodarone]
- viability at 0.1 µM [1, 8]: 74.9%
- viability at 1 µM [1, 9]: 8.8%
- viability at 10 µM [1, 10]: 8.6%
- activation at 0.08 µM [2, 13]: 44.2%

Compound: Nc1c2c(nc3c1CCC3)CCCC2 [Amiridine]
- 0.1 µM (% DMSO) ([1]; alamarBlue viability of expanded OPCs, compound at 0.1 µM, sheet All Tox data): 87.3 % DMSO
- 1 µM (% DMSO) ([1]; alamarBlue viability of expanded OPCs, compound at 1 µM, sheet All Tox data): 86.4 % DMSO
- 10 µM (% DMSO) ([1]; alamarBlue viability of expanded OPCs, compound at 10 µM, sheet All Tox data): 89.5 % DMSO
- OL differentiation, 2 uM (% Quet) ([2]; 2 uM test compound, relative to quetiapine): 7.6 % Quet
- OL differentiation, 10 uM (% Quet) ([2]; 10 uM test compound, relative to quetiapine): 34.5 % Quet

Compound: CN(C)CCC=C1c2ccccc2CCc2ccccc21 [Amitriptyline]
- 0.1 µM (% DMSO) [1, 3]: 82.0 % DMSO
- 1 µM (% DMSO) [1, 4]: 60.1 % DMSO
- 10 µM (% DMSO) [1, 5]: 18.3 % DMSO
- activation at 0.4 µM [2, 14]: -6%
- activation at 2 µM [2, 11]: -23.5%

Compound: CC(C)c1ccc2oc3nc(N)c(C(=O)O)cc3c(=O)c2c1 [Amlexanox]
- viability at 0.1 µM [1, 15]: 84.3%
- viability at 1 µM [1, 16]: 88.6%
- viability at 10 µM [1, 17]: 91.9%
- activation at 2 µM [2, 18]: -11.6%
- activation at 10 µM [2, 19]: -20%

Compound: CCOC(=O)C1=C(COCCN)NC(C)=C(C(=O)OC)C1c1ccccc1Cl (stereo not shown) [Amlodipine]
- viability at 0.1 µM [1, 8]: 69.7%
- viability at 1 µM [1, 9]: 22.7%
- viability at 10 µM [1, 10]: 8.6%
- activation at 0.08 µM [2, 13]: -17.1%
- activation at 0.4 µM [2, 14]: -39.6%

Compound: Clc1ccc2c(c1)C(N1CCNCC1)=Nc1ccccc1O2 [Amoxapine]
- viability at 0.1 µM [1, 8]: 62%
- viability at 1 µM [1, 9]: 40%
- viability at 10 µM [1, 10]: 19.2%
- activation at 0.08 µM [2, 13]: 13%
- activation at 0.4 µM [2, 14]: -10.8%

Compound: CC1(C)S[C@@H]2[C@H](NC(=O)[C@H](N)c3ccc(O)cc3)C(=O)N2[C@H]1C(=O)O [Amoxicillin]
- 0.1 µM (% DMSO) [1, 3]: 93.8 % DMSO
- 1 µM (% DMSO) [1, 4]: 104.4 % DMSO
- 10 µM (% DMSO) [1, 5]: 96.1 % DMSO
- activation at 2 µM [2, 6]: 17.9%
- activation at 10 µM [2, 7]: -7%

Compound: CC1(C)S[C@@H]2[C@H](NC(=O)[C@H](N)c3ccccc3)C(=O)N2[C@H]1C(=O)O [Ampicillin]
- 0.1 µM (% DMSO) [1, 3]: 88.7 % DMSO
- 1 µM (% DMSO) [1, 4]: 94.1 % DMSO
- 10 µM (% DMSO) [1, 5]: 94.1 % DMSO
- activation at 2 µM [2, 6]: -10.9%
- activation at 10 µM [2, 7]: -36.2%

Compound: CCOC(=O)OC(C)OC1=C(C(=O)Nc2ccccn2)N(C)S(=O)(=O)c2ccccc21 (stereo not shown) [Ampiroxicam]
- viability at 0.1 µM [1, 8]: 97.8%
- viability at 1 µM [1, 9]: 82.6%
- viability at 10 µM [1, 10]: 90.8%
- activation at 2 µM [2, 11]: 12.7%
- activation at 10 µM [2, 12]: -2%

Compound: O=C1CN2Cc3c(ccc(Cl)c3Cl)N=C2N1 [Anagrelide hydrochloride]
- viability at 0.1 µM [1, 8]: 93.1%
- viability at 1 µM [1, 9]: 90.4%
- viability at 10 µM [1, 10]: 81.2%
- activation at 2 µM [2, 18]: -7%
- activation at 10 µM [2, 19]: -4.5%

Compound: CC(C)(C#N)c1cc(Cn2cncn2)cc(C(C)(C)C#N)c1 [Anastrozole]
- viability at 0.1 µM [1, 8]: 87.4%
- viability at 1 µM [1, 9]: 92.9%
- viability at 10 µM [1, 10]: 80.3%
- activation at 2 µM [2, 11]: -29.6%
- activation at 10 µM [2, 12]: -33%

Compound: CC1CNc2c(cccc2S(=O)(=O)N[C@@H](CCCNC(=N)N)C(=O)N2CC[C@@H](C)C[C@@H]2C(=O)O)C1 (stereo partly shown) [Argatroban]
- viability at 0.1 µM [1, 15]: 103%
- viability at 1 µM [1, 16]: 101%
- viability at 10 µM [1, 17]: 93%
- activation at 2 µM [2, 18]: 0.26%
- activation at 10 µM [2, 19]: 2.3%

Compound: O=C1CCc2ccc(OCCCCN3CCN(c4cccc(Cl)c4Cl)CC3)cc2N1 [Aripiprazole]
- viability at 0.1 µM [1, 15]: 88.2%
- viability at 1 µM [1, 16]: 86.5%
- viability at 10 µM [1, 17]: 11.3%
- activation at 0.4 µM [2, 20]: -30.6%
- activation at 2 µM [2, 18]: -18.8%

Compound: CO[C@H]1O[C@@H]2O[C@@]3(C)CC[C@H]4[C@H](C)CC[C@@H]([C@H]1C)[C@@]24OO3 [Artemethe]
- 0.1 µM (% DMSO) ([1]; alamarBlue viability, NCC library compound at 0.1 µM, sheet "All Tox data"): 81.3 % DMSO
- 1 µM (% DMSO) ([1]; alamarBlue viability, NCC library compound at 1 µM, sheet "All Tox data"): 76.5 % DMSO
- 10 µM (% DMSO) ([1]; alamarBlue viability, NCC library compound at 10 µM, sheet "All Tox data"): 77.8 % DMSO
- 2 uM (% Quet) ([2]; test compound at 2 uM, NCC library screen, relative to quetiapine): -5.4 % Quet
- 10 uM (% Quet) ([2]; test compound at 10 uM, NCC library screen, relative to quetiapine): -21.6 % Quet

Compound: C[C@H]1[C@H](OC(=O)CCC(=O)O)O[C@@H]2O[C@@]3(C)CC[C@H]4[C@H](C)CC[C@@H]1[C@@]24OO3 [Artesunate]
- viability at 0.1 µM [1, 15]: 93.2%
- viability at 1 µM [1, 16]: 101%
- viability at 10 µM [1, 17]: 74%
- activation at 2 µM [2, 18]: -39.6%
- activation at 10 µM [2, 19]: -122%

Compound: CC(C)NCC(O)COc1ccc(CC(N)=O)cc1 (stereo not shown) [Atenolol]
- 0.1 µM (% DMSO) [1, 3]: 90.5 % DMSO
- 1 µM (% DMSO) [1, 4]: 105.2 % DMSO
- 10 µM (% DMSO) [1, 5]: 146.2 % DMSO
- activation at 2 µM [2, 11]: 31.5%
- activation at 10 µM [2, 12]: 86.2%

Compound: CNCC[C@@H](Oc1ccccc1C)c1ccccc1 [Atomoxetine]
- viability at 0.1 µM [1, 15]: 87.4%
- viability at 1 µM [1, 16]: 74.9%
- viability at 10 µM [1, 17]: 33.8%
- activation at 0.4 µM [2, 20]: -17.2%
- activation at 2 µM [2, 18]: -20.9%

Compound: COc1ccc(CC2c3cc(OC)c(OC)cc3CC[N+]2(C)CCC(=O)OCCCCCOC(=O)CC[N+]2(C)CCc3cc(OC)c(OC)cc3C2Cc2ccc(OC)c(OC)c2)cc1OC (stereo not shown) [Atracurium]
- viability at 0.1 µM [1, 8]: 84.6%
- viability at 1 µM [1, 9]: 75.3%
- viability at 10 µM [1, 10]: 56.2%
- activation at 0.4 µM [2, 14]: 9.5%
- activation at 2 µM [2, 11]: -83%

Compound: Nc1ncn([C@@H]2O[C@H](CO)[C@@H](O)[C@H]2O)c(=O)n1 [Azacitidine]
- 0.1 µM (% DMSO) [1, 3]: 92.1 % DMSO
- 1 µM (% DMSO) [1, 4]: 66.4 % DMSO
- 10 µM (% DMSO) [1, 5]: 57.5 % DMSO
- activation at 2 µM [2, 6]: -59.1%
- activation at 10 µM [2, 7]: -131%

Compound: CN1C(=O)COc2c(C(=O)NC3CN4CCC3CC4)cc(Cl)cc21 (stereo not shown) [Azasetron]
- viability at 0.1 µM [1, 8]: 94.2%
- viability at 1 µM [1, 9]: 80.9%
- viability at 10 µM [1, 10]: 76.8%
- activation at 2 µM [2, 18]: -8.9%
- activation at 10 µM [2, 19]: -16.8%
